The record followed here is patent publication US9963462B2 (priority 2015, dated 2018).

Each structure is given as a SMILES string.

Assay [1] relates to BH4 levels in SK-N-BE (2) cells. The assay is described as follows: SKN-N-BE (2) cellular assay, BH4 levels by LC-MS. Format: cell-based. To be noted: Homo sapiens, SKNBE2, read-out: SK-N-BE(2) IC50, SK-N-BE (2) cells, BH4 levels by LC-MS.
Assay [2] has as its target SNAP-hSPR (sepiapterin reductase, SPR) (Homo sapiens, UniProt P35270). The assay is described as follows: biochemical. It is filed as binding. Conditions: terbium labelled SNAP-hSPR / SSZ labelled SNAP-EGFP; read-out: hTR-FRET IC50.

SNAP-hSPR (sepiapterin reductase, SPR), sequence (P35270 whole entry): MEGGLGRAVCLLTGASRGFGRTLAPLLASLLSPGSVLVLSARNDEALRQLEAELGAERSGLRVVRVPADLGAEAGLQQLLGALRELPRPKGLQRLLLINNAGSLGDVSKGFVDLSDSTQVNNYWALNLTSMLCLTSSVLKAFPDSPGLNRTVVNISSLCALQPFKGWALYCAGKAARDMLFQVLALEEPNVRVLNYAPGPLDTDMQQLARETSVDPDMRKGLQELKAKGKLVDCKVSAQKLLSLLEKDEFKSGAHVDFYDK

The term IC50 denotes the point on the concentration scale where inhibition reaches its midpoint. As to `Cc1c(C(=O)N2CC[C@H](C)C[C@@H]2C(F)(F)F)cnn1-c1nc2c(c(=O)[nH]1)CCC2` (racemic) [Q-0480], the IC50 was 300 nM in assay [1] and 9 nM in assay [2]. In the same order, the values of `Cc1cc(=O)[nH]c(-n2ncc(C(=O)N3CCc4ccccc4[C@@H]3C)c2C)n1` (single isomer, unassigned) [Q-0339] are 1500 nM and 9 nM. In the same order, the values of `Cc1cc(=O)[nH]c(-n2ncc(C(=O)N3CCc4ccccc4[C@H]3C)c2C)n1` (single isomer, unassigned) [Q-0340] are 1100 nM and 7 nM. The like results for `Cc1cc(=O)[nH]c(-n2ncc(C(=O)N3c4ccccc4C[C@H]3C)c2C)n1` (single isomer, unassigned) [Q-0361] were, in that order, 600 nM and 10 nM.

Turning to `Cc1cc(=O)[nH]c(-n2ncc(C(=O)N3c4ccccc4C[C@@H]3C)c2C)n1` (single isomer, unassigned) [Q-0372], the figures for the IC50 in assay [1] and in assay [2] were 300 nM and 5 nM, respectively. In the same order, the values of `Cc1c(C(=O)N2c3ccccc3C[C@H]2C)cnn1-c1nc2ccsc2c(=O)[nH]1` (single isomer, unassigned) [Q-0414] are 300 nM and 6 nM. In the same order, the values of `Cc1c(C(=O)N2c3ccccc3C[C@@H]2C)cnn1-c1nc2ccsc2c(=O)[nH]1` (single isomer, unassigned) [Q-0415] are 1200 nM and 30 nM. In the same order, the values of `Cc1nc(-n2ncc(C(=O)N3c4ccccc4C[C@H]3C)c2C)[nH]c(=O)c1C` (single isomer, unassigned) [Q-0416] are 2800 nM and 20 nM. `Cc1c(C(=O)N2CCC[C@@H](C(F)(F)F)C2)cnn1-c1nc2c(c(=O)[nH]1)CCC2` (single isomer, unassigned) [Q-0474]: the IC50 in assay [1] amounted to 600 nM; in assay [2], 7 nM.

In the case of `Cc1c(C(=O)N2CCC[C@H](C(F)(F)F)C2)cnn1-c1nc2c(c(=O)[nH]1)CCC2` (single isomer, unassigned) [Q-0475], the IC50 in assay [1] amounted to 300 nM; in assay [2], 5 nM. In the same order, the values of `Cc1cc(=O)[nH]c(-n2ncc(C(=O)N3CCc4ccccc43)c2C)n1` [Q-0001] are 2700 nM and 20 nM. In the same order, the values of `Cc1cc(=O)[nH]c(-n2nc(C)c(CCC(=O)Nc3ccc(Cl)cc3)c2C)n1` [Q-0009] are 22000 nM and 300 nM. `Cc1cc(=O)[nH]c(-n2ncc(C(=O)NC3CCCC3)c2C)n1` [Q-0280]: the IC50 in assay [1] came out at 16000 nM; in assay [2], 60 nM. In the same order, the values of `Cc1cc(=O)[nH]c(-n2nc(C)c(CCC(=O)N3CCCC3)c2C)n1` [Q-0281] are 9000 nM and 60 nM.

As to `CCN1CCN(C(=O)c2cnn(-c3nc(C)c(C)c(=O)[nH]3)c2C)CC1` [Q-0282], the IC50 in assay [1] worked out at 4400 nM; in assay [2] it was 30 nM.

In the case of `Cc1cc(=O)[nH]c(-n2ncc(C(=O)N3CCc4ccc(C(F)(F)F)cc4C3)c2C)n1` [Q-0298], the 50% inhibitory concentration (IC50) in assay [1] turned out to be 1500 nM; in assay [2] it was 20 nM. In the same order, the values of `Cc1cc(=O)[nH]c(-n2ncc(C(=O)N3CCN(c4ccccn4)CC3)c2C)n1` [Q-0299] are 1200 nM and 5 nM. In the case of `Cc1cc(=O)[nH]c(-n2ncc(C(=O)N3CCc4cccnc4C3)c2C)n1` [Q-0300], the concentration for half-maximal inhibition (IC50) in assay [1] came to 5000 nM; in assay [2], 9 nM. In the same order, the values of `Cc1cc(=O)[nH]c(-n2ncc(C(=O)N3Cc4ccccc4C3)c2C)n1` [Q-0302] are 1200 nM and 9 nM. For `Cc1cc(=O)[nH]c(-n2ncc(C(=O)N3c4ccccc4CC3C)c2C)n1` (stereo not drawn) [Q-0303], the concentration for half-maximal inhibition (IC50) in assay [1] was 900 nM; in assay [2], 7 nM. For the compound `Cc1cc(=O)[nH]c(-n2ncc(C(=O)N3CCS(=O)(=O)CC3)c2C)n1` [Q-0304], the half-inhibitory concentration (IC50) is 67000 nM in assay [1] and 40 nM in assay [2].

Turning to `Cc1cc(=O)[nH]c(-n2ncc(C(=O)NC34CC5CC(CC(C5)C3)C4)c2C)n1` [Q-0305], the IC50 stood at 4600 nM in assay [1] and 30 nM in assay [2]. The like results for `COc1ccc2c(c1)CN(C(=O)c1cnn(-c3nc(C)cc(=O)[nH]3)c1C)CC2` [Q-0307] were, in that order, 4200 nM and 9 nM.

For `Cc1cc(=O)[nH]c(-n2ccc(C(=O)N3CCc4ccccc4C3)n2)n1` [Q-0308, 6-methyl-2-[3-(1,2,3,4-tetrahydroisoquinoline-2-carbonyl)-1H-pyrazol-1-yl]-3,4-dihydropyrimidin-4-one], the values for the IC50 in assay [1] and in assay [2] were 2000 nM and 20 nM, respectively. The like results for `COC(=O)c1cnn(-c2nc(C)cc(=O)[nH]2)c1C` [Q-0310] were, in that order, 12000 nM and 60 nM. In the same order, the values of `Cc1cc(=O)[nH]c(-n2ncc(CN3CCc4ccccc4C3)c2C)n1` [Q-0311] are 11000 nM and 40 nM. In the same order, the values of `Cc1cc(=O)[nH]c(-n2cc(C(=O)N3CCc4ccccc4C3)nn2)n1` [Q-0312, 6-methyl-2-[4-(1,2,3,4-tetrahydroisoquinoline-2-carbonyl)-1H-1,2,3-triazol-1-yl]-3,4-dihydropyrimidin-4-one] are 10000 nM and 20 nM. Regarding `Cc1cc(=O)[nH]c(-n2ncc(C(=O)N3CCc4ccccc4C3C)c2C)n1` (stereo not drawn) [Q-0313], the half-maximal inhibitory concentration (IC50) in assay [1] worked out at 1500 nM; in assay [2], 6 nM. In the same order, the values of `Cc1cc(=O)[nH]c(-n2cc(C(=O)N3CCc4ccccc4C3)cn2)n1` [Q-0314] are 5800 nM and 20 nM. With `Cc1cc(=O)[nH]c(-n2ncc(C(=O)N(C)C)c2C)n1` [Q-0317], the half-maximal inhibitory concentration (IC50) in assay [1] came out at 20000 nM; in assay [2], 60 nM. In the same order, the values of `Cc1cc(=O)[nH]c(-n2ncc(C(=O)N(C)Cc3ccccc3)c2C)n1` [Q-0318] are 2100 nM and 6 nM. The like results for `Cc1cc(=O)[nH]c(-n2ncc(C(=O)N3CCc4ccccc4C3)c2C(C)C)n1` [Q-0319] were, in that order, 2200 nM and 10 nM.

Regarding `Cc1c(C(=O)N2CCc3ccccc3C2)cnn1-c1nc2ccccc2c(=O)[nH]1` [Q-0323], the concentration for half-maximal inhibition (IC50) in assay [1] came out at 35000 nM; in assay [2], 300 nM. The like results for `Cc1cc(=O)[nH]c(-n2ncc(C(=O)N3CCc4ccc(S(=O)(=O)N5CCOCC5)cc4C3)c2C)n1` [Q-0327] were, in that order, 12000 nM and 7 nM. In the same order, the values of `Cc1cc(=O)[nH]c(-n2ncc(C(=O)N3CCc4cn[nH]c4C3)c2C)n1` [Q-0328] are 53000 nM and 10 nM.

On to `Cc1cc(=O)[nH]c(-n2ncc(C(=O)N3C4CCC3CC4)c2C)n1` [Q-0329], for which the 50% inhibitory concentration (IC50) in assay [1] worked out at 3500 nM; in assay [2], 10 nM. The like results for `Cc1cc(=O)[nH]c(-n2ncc(C(=O)NC3CCCC3)c2C(C)C)n1` [Q-0330] were, in that order, 6100 nM and 20 nM.

As to `Cc1c(C(=O)N2CCC3(CCN(CCC(F)(F)F)C3)CC2)cnn1-c1nn2cccc2c(=O)[nH]1` [Q-1018], in assay [1], the half-inhibitory concentration (IC50) came out at 700 nM. The same measure, in the same setting: the value for `Cc1c(C(=O)N2CCC(N3CCC[C@@H]3C(F)(F)F)CC2)cnn1-c1nn2cccc2c(=O)[nH]1` [Q-1019] was 400 nM. The same measure, in the same setting: next, `Cc1c(C(=O)N2CC(N3CCC(F)CC3)C2)cnn1-c1nn2cccc2c(=O)[nH]1` [Q-1021]: 1000 nM; `Cc1c(C(=O)N2CC3(C2)CC(F)(F)C3)cnn1-c1nc2c(c(=O)[nH]1)CCC2` [Q-1023]: 700 nM. Consider `Cc1c(C(=O)N2CC(N3CCC[C@H](F)C3)C2)cnn1-c1nn2cccc2c(=O)[nH]1` [Q-1025], for which the half-maximal inhibitory concentration (IC50) in assay [1] is 1200 nM. Still for that read-out and setting: the value for `Cc1c(C(=O)N2CCC(N3CCC[C@H](F)C3)C2)cnn1-c1nn2cccc2c(=O)[nH]1` (stereo partly drawn) [Q-1026] was 1700 nM. On the same count and under the same terms, the value for `Cc1c(C(=O)N2CCC(N3CCC(F)CC3)C2)cnn1-c1nn2cccc2c(=O)[nH]1` (stereo not drawn) [Q-1027] was 3100 nM; that for `Cc1c(C(=O)N2CCC(O)(Cc3ccc(F)cc3)C2)cnn1-c1nn2cccc2c(=O)[nH]1` (stereo not drawn) [Q-1028] was 1100 nM; that for `Cc1c(C(=O)N2CCC(N3CCC[C@H]3C(F)(F)F)CC2)cnn1-c1nn2cccc2c(=O)[nH]1` [Q-1029] was 1000 nM. Same read-out and setting: the value for `Cc1c(C(=O)N2CCC(N3CC[C@H](F)C3)C2)cnn1-c1nn2cccc2c(=O)[nH]1` (stereo partly drawn) [Q-1030] was 3100 nM; that for `Cc1c(C(=O)N2CC(N3CC[C@H](F)C3)C2)cnn1-c1nn2cccc2c(=O)[nH]1` [Q-1031] was 2300 nM. `Cc1c(C(=O)N2CC(N3CC(O)(C(F)(F)F)C3)C2)cnn1-c1nn2cccc2c(=O)[nH]1` [Q-1032]: in assay [1], the IC50 amounted to 10000 nM. On the same count and under the same terms, the value for `Cc1c(C(=O)N2CC3CCCC(C2)N3CC(F)(F)F)cnn1-c1nn2cccc2c(=O)[nH]1` [Q-1035] was 100 nM; that for `Cc1c(C(=O)N2CC3CCCC(C2)N3CCC(F)(F)F)cnn1-c1nn2cccc2c(=O)[nH]1` [Q-1036] was 70 nM; that for `Cc1c(C(=O)N2C3CCC2CC(F)(c2ccc(Cl)cc2)C3)cnn1-c1nn2cccc2c(=O)[nH]1` (stereo not drawn) [Q-1037] was 71 nM. On to `Cc1c(C(=O)N2CCC(C)C(F)C2)cnn1-c1nn2cccc2c(=O)[nH]1` (stereo not drawn) [Q-1039], for which the IC50 in assay [1] was found to be 300 nM. Still for that read-out and setting: next, `Cc1c(C(=O)N2CCC(C)CC2)cnn1-c1nn2cccc2c(=O)[nH]1` [Q-1040]: 300 nM. On the same count and under the same terms, the value for `Cc1c(C(=O)N2CC(N3CC(F)(C(F)(F)F)C3)C2)cnn1-c1nn2cccc2c(=O)[nH]1` [Q-1042] was 1000 nM; that for `Cc1c(C(=O)N2CC[C@@H](COc3nccc(Cl)n3)C2)cnn1-c1nn2cccc2c(=O)[nH]1` [Q-1043] was 1400 nM. On the same count and under the same terms, the value for `Cc1c(C(=O)N2CCC[C@H](OCC(F)(F)F)C2)cnn1-c1nn2cccc2c(=O)[nH]1` [Q-1044] was 1000 nM; that for `Cc1c(C(=O)N2CC3CCCC(C2)N3C(=O)OC(C)(C)C)cnn1-c1nc2c(c(=O)[nH]1)CCC2` [Q-1045] was 100 nM; that for `Cc1c(C(=O)N2CCC(F)(F)C2)cnn1-c1nn2cccc2c(=O)[nH]1` [Q-1050] was 1400 nM.
